Like-named read-outs stand apart in the source and are kept apart here.
What was measured:
[1] = IAM-HPLC affinity for membrane phospholipids (logKIAM/W); type: physicochemical; settings: IAM.PC.MG column, pH 7.0 phosphate buffer/acetonitrile, extrapolated to 100% aqueous eluent
Method: n-Octanol/water partition coefficients were theoretically calculated by the program clogP for windows version 2.0 (Biobyte Corp., Claremont, CA, USA). Affinity for membrane phospholipids, so called “phospholipophilicity”, was measured by HPLC on a phospholipid stationary phase. […] liquid chromatograph (Waters-Millipore, Milford, MA, USA), equipped with a 7125 Rheodyne injection valve and a 486 UV detector (Waters) set at 246 nm, was used. The column was an IAM.PC.MG (Immobilized Artificial Membrane-PhosphatidylCholine-MethylGlycolate) (4.6 mm × 150 mm) (Regis Chemical Company, Morton Grove, IL, USA). The mobile phase was 0.01 M phosphate buffer at pH 7.0 and acetonitrile at percentages ranging from 10 to 35 percent (v/v) (from 1.0 to 4.0 mL/min). The chromatography was carried out at room temperature. All samples were dissolved in methanol (ca. 10^-3 M) and 20 μL samples were injected in the chromatograph. Chromatographic retention data are expressed as the logarithm of the capacity factor, log k, defined as: log k = log [(tr - t0)/t0] (1) where tr and t0 are the retention times of the drug and a non-retained compound (citric acid), respectively. The log k values relative to 100% aqueous eluent (logKIAM/W) were calculated by performing a polycratic method of extrapolation. Each compound was eluted with at least three different mobile phases containing acetonitrile in different percentages (φ). […] All values of log k reported are the average of at least three measurements; the 95% confidence interval never exceeded 0.04 for each log k value. Possible occurrence of retention changes due to column aging was monitored by checking the retention times of five test compounds (amlodipine, p-nitroaniline, toluene, isradipine, and ketoprofen).

[2] = test system: Aβ-42; assay: Western blotting of Aβ-42 expression in CTXTNA2 astrocytes (in vitro γ-secretase activity); type: cell-based, rat; settings: 24 h
Method: CTXTNA2 cell line, established from primary cultures of type 1 astrocytes from brain frontal cortex tissue of 1 day old rats, was obtained by ECACC (Salisbury, UK). Cells have been maintained in DMEM, 10% FBS at 37 °C, 5% CO2 until sub-confluence and incubated for 24 h with a DMSO solution of drug (concentrations ranging from 1 µM to 100 µM). For detection of cell viability, a Trypan blue dye exclusion test has been performed.
Cell lysates (20 µg) have been electrophoresed and transferred to nitrocellulose membrane. Nitrocellulose membranes, blocked in 5% non-fat milk, 10 mmol/L Tris pH 7.5, 100 mmol/L NaCl, 0.1% Tween-20, have been probed with mouse APP (Millipore, Billerica, MA, USA) and Aβ (Alpha Diagnostic Intl, San Antonio, TX, USA) monoclonal antibodies (Santa Cruz Biotechnology, Santa Cruz, CA, USA), then incubated in the presence of specific enzyme conjugated IgG horseradish peroxidase. Immunoreactive bands have been detected by ECL detection system (Amersham Intl., Buckinghamshire, UK) and analysed by densitometry. Densitometric values, expressed as Integrated Optical Intensity (I.O.I.), have been estimated in a CHEMIDOC XRS system by the QuantiOne 1-D analysis software (BioRad, Richmond, CA, USA). Values obtained have been normalized basing on densitometric values of internal β tubulin. Statistical analysis has been performed using the analysis of variance (ANOVA). Results have been expressed as mean ± SD. Values of p < 0.05 have been considered statistically significant.

[3] = PAMPA-BBB permeability (porcine polar brain lipid extract); type: in vitro ADME; settings: PAMPA
Method: (§1) The following protocol was applied to measure the Pe through the artificial membrane to predict oral absorption and BBB permeation. In order to study the g.i. permeability, a 2% solution (w/v) of egg lecithin (phosphatidyl choline > 98%, PC) in dodecane was employed as an artificial membrane solution. The effective permeability of BBB was measured using phospholipid mixture from porcine polar brain lipid extract, composed by PC 12.6%, phosphatidylethanolamine (PE) 33.1%, phosphatidylserine (PS) 18.5%, phosphatidylinositol (PI) 4.1%, phospatidic acid (PA) 0.8% and 30.9% of other compounds (purchased from Avantis Polar Lipids, Alabaster, AL, USA). Each donor filtration plate well was then impregnated with 5 µL of this solution carefully, and immediately after 150 µL of phosphate buffer (pH 7.4/pH 6.5), containing co-drug 1 500 µM and iPrOH 20% as co-solvent was added. Then the drug-filled donor plate was placed into the acceptor plate that had been prefilled with the same buffer (300 µL) as acceptor solution. After plate lid was replaced, the resulting assembled donor-acceptor plates were incubated at r.t. for 2 h for PAMPA-GI and 18 h for PAMPA-BBB, following which drugs concentration in the acceptor and donor solutions were determined by HPLC [37].
(§2) Log Pe can be calculated from the equation below: [drawing 10] (2) where Pe is the effective permeability coefficient (cm x s^−1), VD is volume of donor compartment (0.15 cm^3) and VA is volume of acceptor compartment (0.30 cm^3), A is effective filter area (0.28 cm^2), t is incubation time for the assay (s), Cacceptor is the concentration of the compound in the acceptor compartment at the completion of the assay, and Cequilibrium is the concentration of compound at theoretical equilibrium.

[4] = test system: APP; settings: 24 h
Method: For detection of cell viability, a Trypan blue dye exclusion test has been performed [33].
Cell lysates (20 µg) have been electrophoresed and transferred to nitrocellulose membrane. […] Immunoreactive bands have been detected by ECL detection system (Amersham Intl., Buckinghamshire, UK) and analysed by densitometry. Densitometric values, expressed as Integrated Optical Intensity (I.O.I.), have been estimated in a CHEMIDOC XRS system by the QuantiOne 1-D analysis software (BioRad, Richmond, CA, USA). Values obtained have been normalized basing on densitometric values of internal β tubulin. Statistical analysis has been performed using the analysis of variance (ANOVA). Results have been expressed as mean ± SD. Values of p < 0.05 have been considered statistically significant.

[5] = PAMPA-GI permeability (egg lecithin in dodecane); type: in vitro ADME; settings: read-out: PAMPA-GI Pe
Method: as §1, §2

[6] = pH 7.4, 18 h of incubation, read-out: PAMPA-BBB Pe

| SMILES | melting point | LogKIAM/W [1] | Expression of Aβ-42 ([2]; 1 µM) | Expression of Aβ-42 ([2]; 10 µM) | Expression of Aβ-42 ([2]; 100 µM) | Papp at 18 h, 500 µM ([3]; read-out: Pe, BBB penetration) | Expression of APP ([4]; 1 µM) | Expression of APP ([4]; 10 µM) | Expression of APP ([4]; 100 µM) | Papp at 2 h, 500 µM ([5]; pH 6.5, 2 h of incubation) | Papp at 2 h, 500 µM ([5]; pH 7.4, 2 h of incubation) | Papp at 18 h, 500 µM [3, 6] | Aβ-42 production, effect in words ([2]; 1 µM to 100 µM, without affecting the APP level) |
| --- | --- | --- | --- | --- | --- | --- | --- | --- | --- | --- | --- | --- | --- |
| C[C@@H](C(=O)N[C@H]1C(=O)N(C)c2ccccc2-c2ccccc21)c1ccc(-c2ccccc2)c(F)c1 [Compound 4, (2R)-2-(2-Fluoro-1,1'-biphenyl-4-yl)-N-[(7R)-5-methyl-6-oxo-6,7-dihydro-5H-dibenzo[b,d]azepin-7-yl]propanamide] | 100 to 103 °C | 3.21 | (11.0 ± 0.4) × 10^−2 | (12.1 ± 0.4) × 10^−2 | (16.2 ± 0.7) × 10^−2 | ≥ 4 ×10⁻⁶ cm/s | (51.3 ± 2.6) × 10^−2 | (39.9 ± 1.6) × 10^−2 | (60.1 ± 2.7) × 10^−2 | – | – | – | – |
| C[C@@H](C(=O)O)c1ccc(-c2ccccc2)c(F)c1 [R-FLU, (R)-enantiomer of flurbiprofen, reference compound] | – | 1.82 | (20.5 ± 0.7) × 10^−2 | (19.1 ± 0.5) × 10^−2 | (14.1 ± 0.7) × 10^−2 | ≥ 2 ×10⁻⁶ cm/s | (60.0 ± 1.3) × 10^−2 | (54.5 ± 2.3) × 10^−2 | (52.1 ± 2.1) × 10^−2 | 2.4 ×10⁻⁶ cm/s | 2.1 ×10⁻⁶ cm/s | 1.6 ×10⁻⁶ cm/s | – |
| C[C@H](NC(=O)[C@@H](O)c1cc(F)cc(F)c1)C(=O)N[C@@H]1C(=O)N(C)c2ccccc2-c2ccccc21 [LY-411575, reference compound] | – | 1.85 | (8.2 ± 0.1) × 10^−2 | (6.0 ± 0.1) × 10^−2 | (4.1 ± 0.2) × 10^−2 | – | (64.0 ± 2.4) × 10^−2 | (54.7 ± 2.0) × 10^−2 | (57.2 ± 1.2) × 10^−2 | 2.3 ×10⁻⁶ cm/s | 2.5 ×10⁻⁶ cm/s | 2 ×10⁻⁶ cm/s | – |
| C[C@H](C(=O)N[C@H]1C(=O)N(C)c2ccccc2-c2ccccc21)c1ccc(-c2ccccc2)c(F)c1 [Compound 6, (2S)-2-(2-Fluoro-1,1'-biphenyl-4-yl)-N-[(7R)-5-methyl-6-oxo-6,7-dihydro-5H-dibenzo[b,d]azepin-7-yl]propanamide] | 104 to 105 °C | 3.93 | (19.0 ± 0.6) × 10^−2 | (16.2 ± 0.5) × 10^−2 | (13.4 ± 0.7) × 10^−2 | – | (11.3 ± 0.4) × 10^−2 | (10.4 ± 0.2) × 10^−2 | (13.5 ± 0.5) × 10^−2 | – | – | – | – |
| C[C@H](C(=O)N[C@@H]1C(=O)N(C)c2ccccc2-c2ccccc21)c1ccc(-c2ccccc2)c(F)c1 [Compound 7, (2S)-2-(2-Fluoro-1,1'-biphenyl-4-yl)-N-[(7S)-5-methyl-6-oxo-6,7-dihydro-5H-dibenzo[b,d]azepin-7-yl]propanamide] | 102 to 104 °C | 3.21 | (12.4. ± 0.1) × 10^−2 | (11.1 ± 0.3) × 10^−2 | (9.2 ± 0.3) × 10^−2 | ≥ 4 ×10⁻⁶ cm/s | (9.0 ± 0.3) × 10^−2 | (8.0 ± 0.3) × 10^−2 | (10.1 ± 3.2) × 10^−2 | – | – | – | highly effective |

Reference: publication PMC6270570, “New Flurbiprofen Derivatives: Synthesis, Membrane Affinity and Evaluation of in Vitro Effect on β-Amyloid Levels” (Molecules, 2013)
